Measurements taken from BindingDB's records for patent US20250034165 (Chia Tai Tianqing Pharmaceutical Group, 2025).

Columns and labels:
[1] = target: Epidermal growth factor receptor (EGFR)(L858R)(T790M) (Homo sapiens, UniProt P00533, L858R/T790M); test: Inhibitory Activity for EGFR (L858R/T790M) Kinase
Method: (§1) A 50 ng/μL EGFR (L858R/T790M, Carna) stock solution was diluted with a kinase buffer (50 mM HEPES, 10 mM MgCl2, 2 mM DTT, 1 mM EGTA, 0.01% Tween 20), and 6 μL of 1.67× working solution at 0.004175 ng/μL (final concentration: 0.0025 ng/μL) was added to each well. Different compounds dissolved in DMSO were added to wells using a nanoliter pipettor, resulting in the final concentrations of the compounds of 10 nM to 0.0024 nM (4-fold gradient, 7 concentrations in total), and blank control wells (without enzyme) and negative control wells (with enzyme, plus vehicle DMSO) were set, 2 replicate wells for each concentration. After enzyme was reacted with the compound or vehicle for 30 min, 5×ATP at 25 μM (final concentration: 5 μM, Sigma) prepared with a kinase buffer was mixed with 5× substrate at 0.5 μM (final concentration: 0.1 μM, ULight-poly GT, PerkinElmer) at a ratio of 1:1 (v:v), and the mixture was added to each well at 4 μL/well. After being sealed with a film, the plate was incubated at room temperature for 2 h, and then 5 μL of 4×EDTA at 40 mM (final concentration: 10 mM) was added to each well. After the plate was incubated for 5 min at room temperature, 5 μL of 4× detection reagent at 8 nM (final concentration: 2 nM, Eu-anti-phospho-tyrosine antibody, PerkinElmer) was added to each well. After being incubated at room temperature for 1 h, the plate was read using a PerkinElmer Envision multi-mode microplate reader (excitation: 320 nm, emission: 665 nm), and IC50 was calculated by four-parameter fitting.

[2] = target: Epidermal growth factor receptor (Homo sapiens, UniProt P00533); test: Inhibitory Activity for EGFR (WT) Kinase
Method: A 50 ng/μL EGFR (WT, Carna) stock solution was diluted with a kinase buffer (50 mM HEPES, 10 mM MgCl2, 2 mM DTT, 1 mM EGTA, 0.01% Tween 20), and 6 μL of 1.67× working solution at 0.005 ng/μL (final concentration: 0.003 ng/μL) was added to each well. Different compounds dissolved in DMSO were added to the wells using a nanoliter pipettor, resulting in the final concentrations of the compounds of 100 nM to 0.0244 nM (4-fold gradient for 7 concentrations in total), and blank control wells (without enzyme) and negative control wells (with enzyme, plus vehicle DMSO) were set, 2 replicate wells for each concentration. After enzyme was reacted with the compound or vehicle for 30 min, 5×ATP at 25 μM (final concentration: 5 μM, Sigma) prepared with a kinase buffer was mixed with 5× substrate at 0.5 μM (final concentration: 0.1 μM, ULight-poly GT, PerkinElmer) at a ratio of 1:1 (v:v), and the mixture was added to each well at 4 μL/well. After being sealed with a film, the plate was incubated at room temperature for 2 h, and then 5 μL of 4×EDTA at 40 mM (final concentration: 10 mM) was added to each well. After the plate was incubated for 5 min at room temperature, 5 μL of 4× detection reagent at 8 nM (final concentration: 2 nM, Eu-anti-phospho-tyrosine antibody, PerkinElmer) was added to each well.

[3] = target: Epidermal growth factor receptor [T790M,C797S,L858R] (UniProt P00533, C797S/L858R/T790M); test: Inhibitory Activity for EGFR (L858R/T790M/C797S) Kinase
Method: as §1, with “(L858R/T790M/C797S, BPS)” for “(L858R/T790M, Carna)”, “0.00167” for “0.004175”, “0.001” for “0.0025”

[4] = target: Epidermal growth factor receptor [T790M,L858R] (Homo sapiens, UniProt P00533, L858R/T790M); test: Inhibitory Activity for EGFR (L858R/T790M) Kinase
Method: as §1

Chain of Epidermal growth factor receptor (P00533 whole entry): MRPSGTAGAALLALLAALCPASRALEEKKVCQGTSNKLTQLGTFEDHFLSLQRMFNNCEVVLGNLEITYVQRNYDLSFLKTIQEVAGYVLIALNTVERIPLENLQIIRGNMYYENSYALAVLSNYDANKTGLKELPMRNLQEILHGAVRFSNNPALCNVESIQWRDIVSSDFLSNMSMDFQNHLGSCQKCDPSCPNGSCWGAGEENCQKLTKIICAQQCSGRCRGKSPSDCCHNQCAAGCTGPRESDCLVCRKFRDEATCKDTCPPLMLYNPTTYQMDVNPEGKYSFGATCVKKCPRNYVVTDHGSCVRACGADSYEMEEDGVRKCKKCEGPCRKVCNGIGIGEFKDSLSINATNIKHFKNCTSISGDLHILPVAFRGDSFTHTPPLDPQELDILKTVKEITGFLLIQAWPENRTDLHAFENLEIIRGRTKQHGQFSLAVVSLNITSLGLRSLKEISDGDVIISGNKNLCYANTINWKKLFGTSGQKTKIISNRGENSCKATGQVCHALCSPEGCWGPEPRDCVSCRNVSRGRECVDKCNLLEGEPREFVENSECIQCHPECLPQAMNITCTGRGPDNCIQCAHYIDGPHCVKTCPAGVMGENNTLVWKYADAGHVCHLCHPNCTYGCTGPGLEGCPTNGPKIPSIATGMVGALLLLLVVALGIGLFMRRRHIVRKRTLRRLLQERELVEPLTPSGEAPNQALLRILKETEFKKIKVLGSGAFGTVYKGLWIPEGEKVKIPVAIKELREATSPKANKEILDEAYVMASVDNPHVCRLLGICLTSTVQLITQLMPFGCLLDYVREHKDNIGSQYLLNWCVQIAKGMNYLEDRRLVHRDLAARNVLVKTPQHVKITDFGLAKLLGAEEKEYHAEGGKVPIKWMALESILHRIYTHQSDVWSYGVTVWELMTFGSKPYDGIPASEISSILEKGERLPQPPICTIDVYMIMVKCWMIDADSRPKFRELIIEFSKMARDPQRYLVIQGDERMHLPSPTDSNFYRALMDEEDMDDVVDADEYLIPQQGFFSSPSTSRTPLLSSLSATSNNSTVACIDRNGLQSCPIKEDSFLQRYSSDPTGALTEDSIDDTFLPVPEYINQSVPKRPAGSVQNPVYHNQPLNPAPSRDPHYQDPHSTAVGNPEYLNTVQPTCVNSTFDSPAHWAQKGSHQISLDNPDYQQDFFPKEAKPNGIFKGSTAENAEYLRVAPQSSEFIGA
Chain of Epidermal growth factor receptor (EGFR)(L858R)(T790M) (P00533 25-1210 T790M/L858R limits assumed): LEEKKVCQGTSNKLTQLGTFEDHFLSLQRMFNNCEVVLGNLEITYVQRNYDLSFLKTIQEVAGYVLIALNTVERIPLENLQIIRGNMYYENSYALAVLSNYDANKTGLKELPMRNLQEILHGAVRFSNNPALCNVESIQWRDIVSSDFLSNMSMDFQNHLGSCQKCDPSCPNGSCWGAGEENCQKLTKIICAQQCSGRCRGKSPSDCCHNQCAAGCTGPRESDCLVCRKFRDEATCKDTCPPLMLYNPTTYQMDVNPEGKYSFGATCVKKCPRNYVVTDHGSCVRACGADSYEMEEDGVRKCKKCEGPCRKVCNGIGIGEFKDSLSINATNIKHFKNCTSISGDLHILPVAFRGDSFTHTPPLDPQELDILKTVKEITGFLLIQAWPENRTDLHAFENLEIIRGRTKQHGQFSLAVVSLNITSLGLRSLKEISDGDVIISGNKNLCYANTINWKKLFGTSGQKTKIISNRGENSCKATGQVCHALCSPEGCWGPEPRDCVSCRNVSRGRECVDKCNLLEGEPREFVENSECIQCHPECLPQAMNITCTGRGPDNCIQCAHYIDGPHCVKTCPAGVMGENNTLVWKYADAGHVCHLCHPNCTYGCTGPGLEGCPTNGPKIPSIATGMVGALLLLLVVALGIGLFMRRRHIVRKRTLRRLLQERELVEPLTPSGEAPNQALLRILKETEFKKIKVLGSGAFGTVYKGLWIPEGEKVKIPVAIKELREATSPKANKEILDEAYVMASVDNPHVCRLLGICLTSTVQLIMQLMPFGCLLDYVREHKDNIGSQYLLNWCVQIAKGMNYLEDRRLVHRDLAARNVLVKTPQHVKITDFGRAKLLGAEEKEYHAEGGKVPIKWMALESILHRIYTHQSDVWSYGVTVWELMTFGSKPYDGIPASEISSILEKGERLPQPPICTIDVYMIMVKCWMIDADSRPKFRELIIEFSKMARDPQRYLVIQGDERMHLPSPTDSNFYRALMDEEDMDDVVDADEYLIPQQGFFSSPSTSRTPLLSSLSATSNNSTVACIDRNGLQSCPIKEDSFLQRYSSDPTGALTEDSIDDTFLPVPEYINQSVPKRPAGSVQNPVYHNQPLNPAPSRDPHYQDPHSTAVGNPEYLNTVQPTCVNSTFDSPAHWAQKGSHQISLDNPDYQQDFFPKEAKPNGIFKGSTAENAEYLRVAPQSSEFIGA
Chain of Epidermal growth factor receptor [T790M,C797S,L858R] (P00533 25-1210 T790M/C797S/L858R limits assumed): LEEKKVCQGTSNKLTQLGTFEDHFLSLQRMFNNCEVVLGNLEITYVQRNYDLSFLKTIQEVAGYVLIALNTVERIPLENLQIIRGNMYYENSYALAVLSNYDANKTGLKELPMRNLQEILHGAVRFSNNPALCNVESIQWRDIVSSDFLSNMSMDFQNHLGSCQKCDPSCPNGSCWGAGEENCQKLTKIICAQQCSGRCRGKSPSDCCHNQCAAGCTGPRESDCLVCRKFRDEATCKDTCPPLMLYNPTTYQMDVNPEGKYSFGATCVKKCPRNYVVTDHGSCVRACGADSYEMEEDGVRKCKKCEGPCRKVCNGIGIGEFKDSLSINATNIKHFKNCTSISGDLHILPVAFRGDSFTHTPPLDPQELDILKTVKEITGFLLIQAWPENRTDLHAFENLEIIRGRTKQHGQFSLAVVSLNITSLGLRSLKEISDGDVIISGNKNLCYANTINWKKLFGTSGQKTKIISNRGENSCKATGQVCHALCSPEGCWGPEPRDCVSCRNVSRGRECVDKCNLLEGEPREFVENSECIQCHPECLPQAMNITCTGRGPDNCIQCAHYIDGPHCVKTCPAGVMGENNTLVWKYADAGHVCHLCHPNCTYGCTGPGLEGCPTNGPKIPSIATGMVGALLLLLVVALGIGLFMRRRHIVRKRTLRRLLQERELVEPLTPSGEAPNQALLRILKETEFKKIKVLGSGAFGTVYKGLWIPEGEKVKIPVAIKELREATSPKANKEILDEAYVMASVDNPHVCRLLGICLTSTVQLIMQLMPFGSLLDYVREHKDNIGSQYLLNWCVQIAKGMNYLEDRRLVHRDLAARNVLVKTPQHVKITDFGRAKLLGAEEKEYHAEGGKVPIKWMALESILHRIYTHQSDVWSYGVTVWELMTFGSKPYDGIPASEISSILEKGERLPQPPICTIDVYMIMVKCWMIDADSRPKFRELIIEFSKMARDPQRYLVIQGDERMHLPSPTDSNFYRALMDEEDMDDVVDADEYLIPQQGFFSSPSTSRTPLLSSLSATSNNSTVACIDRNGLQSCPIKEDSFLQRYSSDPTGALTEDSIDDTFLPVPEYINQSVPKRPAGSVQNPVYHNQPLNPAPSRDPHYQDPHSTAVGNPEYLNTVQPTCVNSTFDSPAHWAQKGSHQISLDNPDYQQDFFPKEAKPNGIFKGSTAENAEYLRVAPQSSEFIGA
Chain of Epidermal growth factor receptor [T790M,L858R] (P00533 25-1210 T790M/L858R limits assumed): as the sequence (P00533 25-1210 T790M/L858R limits assumed) above

| SMILES | IC50 [1] [pM] | IC50 [2] [pM] | IC50 [3] [pM] | IC50 [4] [pM] |
| --- | --- | --- | --- | --- |
| Cc1cc2cc(n1)-c1cnn(C)c1OCCC[C@@H](C1CC1)CN1/C(=N/C2=O)Nc2cc(NCC3COC3)ccc21 [US20250034165, Example 36] | 33 | 1500 | 35 |  |
| Cc1cc2cc(n1)-c1cnn(C)c1OCCC[C@@H](C1CC1)CN1/C(=N/C2=O)Nc2cc(NC3C(C)(C)OC3(C)C)ccc21 [US20250034165, Example 31] | 38 | 2200 | 42 |  |
| Cc1cc2cc(n1)-c1cnn(C)c1OCCC[C@@H](C1CC1)CN1/C(=N/C2=O)Nc2cc(NC(C)C3COC3)ccc21 (stereo not given in full) [US20250034165, Example 37] | 27 | 1400 | 37 |  |
| Cc1cc2cc(n1)-c1cnn(C)c1OCCC[C@@H](C1CC1)CN1/C(=N/C2=O)Nc2ccc(NCCCN3CCCCC3)cc21 [US20250034165, Example 80] | 31 | 560 | 19 |  |
| Cc1cc2cc(n1)-c1cnn(C)c1OCCC[C@@H](C1CC1)CN1/C(=N/C2=O)Nc2ccc(NCCCN3CCOCC3)cc21 [US20250034165, Example 81] | 44 | 680 | 27 |  |
| Cc1cc2cc(n1)-c1cnn(C)c1OCCC[C@@H](C1CC1)CN1/C(=N/C2=O)Nc2cc(NC3COC3(C)C)ccc21 (stereo not given in full) [US20250034165, Example 30] | 130 | 2800 | 120 |  |
| Cc1cc2cc(n1)-c1cnn(C)c1OCCC[C@@H](C1CC1)CN1/C(=N/C2=O)Nc2ccc(NCCCN(C)C)cc21 [US20250034165, Example 27] | 30 | 780 | 33 |  |
| Cc1cc2cc(n1)-c1cnn(C)c1OCCC[C@@H](C1CC1)CN1/C(=N/C2=O)Nc2ccc(NCCN3CCCCC3)cc21 [US20250034165, Example 83] | 40 | 790 | 23 |  |
| Cc1cc2cc(n1)-c1cnn(C)c1OCCC[C@@H](C1CC1)CN1/C(=N/C2=O)Nc2cc(NC(C)CN(C)C)ccc21 (stereo not given in full) [US20250034165, Example 62] | 31 | 770 | 16 |  |
| Cc1cc2cc(n1)-c1cnn(C3CC3)c1OCCC[C@@H](C)CN1/C(=N/C2=O)Nc2cc(NC3CCN(C)CC3)ccc21 [US20250034165, Example 12] | 190 | 2600 | 200 |  |
| Cc1cc2cc(n1)-c1cnn(C)c1OCCC[C@@H](C1CC1)CN1/C(=N/C2=O)Nc2ccc(OCCN(C)C)cc21 [US20250034165, Example 11] | 44 | 1900 | 55 |  |
| Cc1cc2cc(n1)-c1cnn(C)c1OCCC[C@@H](C1CC1)CN1/C(=N/C2=O)Nc2cc(NCC3(C)COC3)ccc21 [US20250034165, Example 40] | 27 | 1600 | 30 |  |
| [2H]C([2H])([2H])N(C[C@H](C)Nc1ccc2c(c1)N1C[C@H](C3CC3)CCCOc3c(cnn3C)-c3cc(cc(C)n3)C(=O)/N=C\1N2)C([2H])([2H])[2H] [US20250034165, Example 123] |  |  |  | 160 |
| Cc1cc2cc(n1)-c1cnn(C)c1OCCC[C@@H](C1CC1)CN1/C(=N/C2=O)Nc2cc(NC3CCN(C)CC3)ccc21 [US20250034165, Example 10] | 20 | 120 | 19 |  |
| Cc1cc2cc(n1)-c1cnn(C)c1OCCC[C@@H](C1CC1)CN1/C(=N/C2=O)Nc2cc(NCCN3CCCC3)ccc21 [US20250034165, Example 72] | 38 | 930 | 21 |  |
| Cc1cc2cc(n1)-c1cnn(C)c1OCCC[C@@H](C1CC1)CN1/C(=N/C2=O)Nc2ccc(NC3CCCC3)cc21 [US20250034165, Example 87] | 42 | 13000 | 226 |  |
| Cc1cc2cc(n1)-c1cnn(C3CC3)c1OCCC[C@@H](C)CN1/C(=N/C2=O)Nc2cc(N[C@@H]3CCOC3)ccc21 [US20250034165, Example 13] | 88 | 2000 | 95 |  |

The next lines start with the values.

| IC50 [1] [pM] | IC50 [2] [pM] | IC50 [3] [pM] | IC50 [4] [pM] | SMILES |
| --- | --- | --- | --- | --- |
| 17 | 500 | 22 |  | CCN1CCC(Nc2ccc3c(c2)N2C[C@H](C4CC4)CCCOc4c(cnn4C)-c4cc(cc(C)n4)C(=O)/N=C/2N3)CC1 [US20250034165, Example 55] |
| 20 | 950 | 24 |  | Cc1cc2cc(n1)-c1cnn(C)c1OCCC[C@@H](C1CC1)CN1/C(=N/C2=O)Nc2ccc(N(C)CCN(C)C)cc21 [US20250034165, Example 45] |
| 19 | 1400 | 21 |  | Cc1cc2cc(n1)-c1cnn(C)c1OCCC[C@@H](C1CC1)CN1/C(=N/C2=O)Nc2cc(NC3(C)COC3)ccc21 [US20250034165, Example 29] |
| 10 | 360 | 7 |  | Cc1cc2cc(n1)-c1cnn(C)c1OCCC[C@@H](C1CC1)CN1/C(=N/C2=O)Nc2cc(NCCCN(C)C)ccc21 [US20250034165, Example 44] |
| 18 | 340 | 29 |  | Cc1cc2cc(n1)-c1cnn(C)c1OCCC[C@@H](C1CC1)CN1/C(=N/C2=O)Nc2cc(NC3CNC3)ccc21 [US20250034165, Example 32] |
| 11 | 700 | 8 |  | Cc1cc2cc(n1)-c1cnn(C3CC3)c1OCCC[C@@H](C)CN1/C(=N/C2=O)Nc2ccc(NCCN(C)C)cc21 [US20250034165, Example 17] |
| 15 | 990 | 29 |  | Cc1cc2cc(n1)-c1cnn(C)c1OCCC[C@@H](C1CC1)CN1/C(=N/C2=O)Nc2cc(NCCCN3CCCC3)ccc21 [US20250034165, Example 70] |
| 18 | 1100 | 21 |  | Cc1cc2cc(n1)-c1cnn(C)c1OCCC[C@@H](C1CC1)CN1/C(=N/C2=O)Nc2cc(N(C)C3COC3)ccc21 [US20250034165, Example 41] |
| 13 | 680 | 11 |  | Cc1cc2cc(n1)-c1cnn(C)c1OCCC[C@@H](C1CC1)CN1/C(=N/C2=O)Nc2cc(NCCN(C)C)ccc21 [US20250034165, Example 42] |
| 17 | 390 | 25 |  | Cc1cc2cc(n1)-c1cnn(C)c1OCCC[C@@H](C1CC1)CN1/C(=N/C2=O)Nc2ccc(NC3CCN(C(C)C)CC3)cc21 [US20250034165, Example 54] |
| 11 | 720 | 14 |  | Cc1cc2cc(n1)-c1cnn(C)c1OCCC[C@@H](C1CC1)CN1/C(=N/C2=O)Nc2cc(NCCCCN)ccc21 [US20250034165, Example 53] |
| 7 | 6200 | 123 |  | Cc1cc2cc(n1)-c1cnn(C)c1OCCC[C@@H](C1CC1)CN1/C(=N/C2=O)Nc2cc(NC3CCC3)ccc21 [US20250034165, Example 79] |
